Several values for one entry are separate records, joined by “and”; a condition that tells them apart may be missing. Identical values can stand only once.
Tested on: patients with HCC
Assay: Tumor response / efficacy in patients with HCC (RECIST 1.1/modified RECIST), trial NCT02834780
Assay type: in vivo, human
Conditions: for Clinical Benefit Rate (CBR)(CR+PR+Durable SD): durable SD = stable disease ≥ 17 weeks; for clinical benefit rate / confirmed ORR: 55 HCC patients with ≥ 2 prior lines of therapy; for clinical benefit rate (complete response + partial response + durable stable disease) / confirmed overall response rate (ORR): 90 patients with HCC; for median OS / median PFS: HCC patients with ≥ 2 prior lines of therapy; for median overall survival (OS) / median progression-free survival (PFS): all HCC patients
Text: A description of the first in human clinical trial for H3B-6527 can be found at the ClinicalTrials.gov by searching for trial identifier NCT02834780. In summary, the trial included a study population having the following characteristics: Adult patients ≥18 years old with advanced HCC or ICC; Progression after at least one prior therapy; ECOG score of 0 or 1; Well compensated liver function; FGF19-positive (dose expansion phase only); Excluded if patients have significant active infections [except hepatitis B virus (HBV) and hepatitis C virus (HCV)], gastric or esophageal varices, or previous FGF19-FGFR4 targeted therapy.
Drug Administration and Dosage for Dose Escalation: H3B-6527 was administered orally QD or BID on a 21-day cycle. Dose escalation followed a standard 3+3 cohort design with the dose cohorts of 300, 600, 1000, and 1400 mg QD fasting or 500 and 700 mg BID fed. Patients in dose escalation phase were treated regardless of FGF19 status. Response determined by RECIST 1.1/modified RECIST every 6 weeks

[1] = Expansion 1000 mg QD Fasted (N=10)

In the case of `C=CC(=O)Nc1cc(N2CCN(CC)CC2)ccc1Nc1cc(N(C)C(=O)Nc2c(Cl)c(OC)cc(OC)c2Cl)ncn1` [H3B-6527, N-(2-((6-(3-(2,6-dichloro-3,5-dimethoxyphenyl)-1-methylureido)pyrimidin-4-yl)amino)-5-(4-ethylpiperazin-1-yl)phenyl)acrylamide], the “Best Overall Response: Complete Response (CR)” value (shortened to “Best Overall Response … (CR)”) (300 mg QD Fasted (N=3)) is reported as 0 (0.0) n (%), the “Best Overall Response: Not Evaluable” value (300 mg QD Fasted (N=3)) is reported as 0 (0.0) n (%) and the “Best Overall Response: Partial Response (PR)” value (from here on “Best Overall Response … (PR)”) (300 mg QD Fasted (N=3)) is reported as 0 (0.0) n (%). The “Best Overall Response: Progressive Disease (PD)” value (from here on “Best Overall Response … (PD)”) (300 mg QD Fasted (N=3)) was 0 (0.0) n (%), the “Best Overall Response: Unknown” value (300 mg QD Fasted (N=3)) was 0 (0.0) n (%) and the “Objective Response Rate (CR+PR)” value (300 mg QD Fasted (N=3)) was 0 (0.0) n (%). For the same compound, the “Clinical Benefit Rate (CBR)(CR+PR+Durable SD)” value (300 mg QD Fasted (N=3)) was 1 (33.3) n (%), the “Best Overall Response … (CR)” value (600 mg QD Fasted (N=3)) was 0 (0.0) n (%) and the “Best Overall Response: Not Evaluable” value (600 mg QD Fasted (N=3)) was 0 (0.0) n (%). The “Best Overall Response … (PR)” value (600 mg QD Fasted (N=3)) was 0 (0.0) n (%), the “Best Overall Response … (PD)” value (600 mg QD Fasted (N=3)) was 1 (33.3) n (%) and the “Best Overall Response: Unknown” value (600 mg QD Fasted (N=3)) was 0 (0.0) n (%). The “Objective Response Rate (CR+PR)” value (600 mg QD Fasted (N=3)) was 0 (0.0) n (%), the “Clinical Benefit Rate (CBR)(CR+PR+Durable SD)” value (600 mg QD Fasted (N=3)) was 2 (66.7) n (%) and the “Best Overall Response … (CR)” value (1000 mg QD Fasted (N=7)) was 0 (0.0) n (%). For the same compound, the “Best Overall Response: Not Evaluable” value (1000 mg QD Fasted (N=7)) was 0 (0.0) n (%), the “Best Overall Response … (PR)” value (1000 mg QD Fasted (N=7)) was 1 (14.3) n (%) and the “Best Overall Response … (PD)” value (1000 mg QD Fasted (N=7)) was 0 (0.0) n (%). The “Best Overall Response: Unknown” value (1000 mg QD Fasted (N=7)) was 0 (0.0) n (%), the “Objective Response Rate (CR+PR)” value (1000 mg QD Fasted (N=7)) was 1 (14.3) n (%) and the “Clinical Benefit Rate (CBR)(CR+PR+Durable SD)” value (1000 mg QD Fasted (N=7)) was 5 (71.4) n (%). For the same compound, the “Best Overall Response … (CR)” value (1400 mg QD Fasted (N=4)) was 0 (0.0) n (%), the “Best Overall Response: Not Evaluable” value (1400 mg QD Fasted (N=4)) was 0 (0.0) n (%) and the “Best Overall Response … (PR)” value (1400 mg QD Fasted (N=4)) was 1 (25.0) n (%). For the same compound, the “Best Overall Response … (PD)” value (1400 mg QD Fasted (N=4)) was 0 (0.0) n (%), the “Best Overall Response: Unknown” value (1400 mg QD Fasted (N=4)) was 0 (0.0) n (%) and the “Objective Response Rate (CR+PR)” value (1400 mg QD Fasted (N=4)) was 1 (25.0) n (%). For the same compound, the “Clinical Benefit Rate (CBR)(CR+PR+Durable SD)” value (1400 mg QD Fasted (N=4)) was 3 (75.0) n (%), the clinical benefit rate (BID group) was 25.8% and the “confirmed ORR” value (BID group) was 0%. The “clinical benefit rate (complete response + partial response + durable stable disease)” value (BID group) was 38%, the “confirmed overall response rate (ORR)” value (BID group) was 0% and the “median OS” value (BID group) was 7.3 months. For the same compound, the “median PFS” value (BID group) was 2.8 months, the “median overall survival (OS)” value (BID group) was 8.0 months and the “median progression-free survival (PFS)” value (BID group) was 3.4 months. The “Best Overall Response … (CR)” value [1] was 0 (0.0) n (%), the “Best Overall Response: Not Evaluable” value [1] was 0 (0.0) n (%) and the “Best Overall Response … (PR)” value [1] was 0 (0.0) n (%). For the same compound, the “Best Overall Response … (PD)” value [1] was 1 (10.0) n (%), the “Best Overall Response: Unknown” value [1] was 3 (30.0) n (%) and the “Objective Response Rate (CR+PR)” value [1] was 0 (0.0) n (%). The “Clinical Benefit Rate (CBR)(CR+PR+Durable SD)” value [1] was 2 (20.0) n (%), the clinical benefit rate (QD group) was 45.8% and the “confirmed ORR” value (QD group) was 12.5%. The “clinical benefit rate (complete response + partial response + durable stable disease)” value (QD group) was 52%, the “confirmed overall response rate (ORR)” value (QD group) was 8.3% and the “median OS” value (QD group) was 10.6 months. The “median PFS” value (QD group) was 4.1 months, the “median overall survival (OS)” value (QD group) was 11.1 months and the “median progression-free survival (PFS)” value (QD group) was 4.1 months. For the same compound, the “Best Overall Response … (CR)” value (Total (N=27), QD fasted) was 0 (0.0) n (%), the “Best Overall Response: Not Evaluable” value (Total (N=27), QD fasted) was 0 (0.0) n (%) and the “Best Overall Response … (PR)” value (Total (N=27), QD fasted) was 2 (7.4%) n (%) and 2 (7.4) n (%). For the same compound, the “Best Overall Response … (PD)” value (Total (N=27), QD fasted) was 2 (7.4) n (%), the “Best Overall Response: Unknown” value (Total (N=27), QD fasted) was 3 (11.1) n (%) and the “Objective Response Rate (CR+PR)” value (Total (N=27), QD fasted) was 2 (7.4) n (%). For the same compound, the “Clinical Benefit Rate (CBR)(CR+PR+Durable SD)” value (Total (N=27), QD fasted) was 13 (48.1) n (%).
